{"source": "patent US20190330167A1", "about": "“ACTIVATORS OF HIV LATENCY” (priority 2016, published 2019)", "key": {"[1]": {"tested_on": "latent HIV in resting memory CD4+ T cells isolated by leukapheresis from HIV+ donors on antiretroviral therapy", "assay_type": "cell-based, HIV-1", "settings": "72 hrs", "excerpt": "FIG. 41a. […] Resting memory CD4+ T cells isolated by leukapheresis from HIV+ donors on antiretroviral therapy were reactivated for 72 hrs using known LRAs including vorinostat (Vor) also known as suberanilohydroxamic acid, another hydroxamic acid panobinostat (Pan), and the depsipeptide Romidepsin (Rom) that are all HDACi, together with JQ1 (+) which is a thienotriazolodiazepine known to inhibit the BET family of bromodomain proteins including BRD2, BRD3, and BRD4, and compared with compounds according to the present invention DP#6 (Compound 41), DP#14 (Compound 7), and DP#16 (Compound 64).\nFIG. 41c. […] Resting memory CD4+ T cells isolated by leukapheresis from HIV+ donors on antiretroviral therapy were reactivated for 72 hrs using known (vorinostat, Vor; panobinostat, Pan; romidepsin, Rom; and JQ1 (+)) and compounds according to the present invention (DP#6 (Compound 41), DP#14 (Compound 7), and DP#16 (Compound 64)).\nFIG. 42c. […] Resting memory CD4+ T cells isolated by leukapheresis from HIV+ donors on antiretroviral therapy were reactivated for 72 hrs using known (JQ1 (+)) and compounds according to the present invention (DP#14 (Compound 7)) alone and in combination, and HIV-1 RNA detected through qPCR.\nTotal peripheral blood mononuclear cells (PBMC) were stored frozen in liquid nitrogen and prior to use, vials of frozen cells (0.5×10^8 PBMCs/vial or 1×10^8 PBMCs/vial) were quick thawed in a 42° C. water bath. Cells were promptly transferred to a 15 mL tube with 5 mL FBS dropwise then, then 6 mL of RF10 was added. Cells were pelleted at 300 g for 10 min at room temperature. Following aspiration, the cells were resuspended in RF10, pooled into a 50 mL tube which was topped up with RF10. PBMC were pelleted again at 300 g for 10 min at room temperature. Following aspiration, the cells were resuspended in PBS(−/−) and counted. CD4+ T cells were then isolated from 4×10^8 PBMCs that were pelleted and resuspended in PBS(−/−) at 1×10^7 cells/40 μL. 10 μL of CD4+ T cell Biotin-Antibody cocktail (Miltenyi Biotec) for every 1×10^7 cells was added and the mix refrigerated for 5 min. 30 μL of PBS(−/−) for every 1×10^7 cells was added, and 20 μL of the CD4+ T cell MicroBeads for every 1×10^7 cells was added and the mix refrigerated for 10 min. Unlabelled CD4+ T cells were then isolated by negative selection using magnetic separation. CD4+ T cells were then counted before being diluted to 4×10^6 cells/500 μL in RF10 for each condition and seeded into a 48 well plate.\nLatent HIV was reactivated in the presence of the HIV integrase inhibitor Raltagravir (Ral) to prevent any further rounds of infection. Ral was made to [2 μM] in RF10+IL-2 (2 U/mL), and used to make 1 mL preparation of each drug up at [×2]. 500 μL of the [×2 Ral/IL-2/drug] was then added to the appropriate wells containing cells. Cells were transported to PC3 and incubated for 72 hrs.\nFollowing reactivation, 800 μL of cell supernatant was transferred to labeled 1.5 mL screwcap tubes, pelletted at 800 g for 10 min then transferred to a second set of tubes and frozen for possible use at a later date. 800 μL of PBS(−/−) was added to each well to mix the cells and 50 μL of cells transferred to another set of tubes for live/dead staining and flow cytometry. Cells were pelleted at 400 g for 10 min, the media aspirated and cells resuspended in 100 μL of a [×1] APC-cy7 live/dead stain (Life technologies)."}, "[2]": {"tested_on": "HIV-1 gene expression in J.Lat10.6 latently infected T-cell line", "test": "cells", "assay_type": "cell-based", "procedure": "The J.Lat10.6 latently infected T-cell line was treated with 4 compounds of the present invention, DP#6 (Compound 41), DP#14 (Compound 7), DP#18 (Compound 65), and DP#19 (Compound 73) and reactivated for 48 hrs. HIV-1 reactivation was measured by flowcytometry for GFP expression. Error bars represent standard deviation of n=3 experiments.\nFIG. 45. […] The J.Lat10.6 model of HIV-1 latency was treated with JQ1 (+) and DP#14 (Compound 7) alone at 10 μM and in combination, and the HIV-1 gene expression measured 48 hrs post treatment. Error bars represent standard deviation of n=3 experiments. OPTI represents media alone, without DP#14.\nFIG. 47. […] The J.Lat10.6 model of HIV-1 latency was treated with PFI-1 and DP#14 alone at 10 μM and in combination, and the HIV-1 gene expression measured 48 hrs post treatment. Error bars represent standard deviation of n=3 experiments. OPTI represents media alone, without DP#14.\nCompounds were also evaluated in a dose ranging titration with HIV latently infected cell lines (J.Lat 6.3 and 10.6). The specificity of the selected compounds in these cell line models, were measured by inserting a CMV-DS.Red reporter into these cells to co-ordinately measure HIV specific LTR-Green fluorescent protein and non-specific DS.Red expression during FACS analysis.\nThe J.Lat model of HIV-1 latency is a well-established model used widely and is described in detail in the following paper:\nHIV reproducibly establishes a latent infection after acute infection of T cells in vitro, Eric Verdin et al, The EMBO Journal Vol. 22 No. 8 pp 1868-1877, 2003"}, "J.Lat10.6 T-cell line": {"tested_on": "J.Lat10.6 T-cell line", "test": "Dose dependent toxicity in the J.Lat model", "assay_type": "cell-based", "settings": "dosed as high as 40 μM"}}, "note": "Like-named read-outs stand apart in the source and are kept apart here."}
{"compound": "O=C(CCCOc1ccccc1)Nc1ncc(Br)s1", "note": "[Compound 7]", "values": [{"measurement": "induction of HIV-1 gene expression, % of the normalized value", "setting": "[1]; at 5 μM, normalized between unstimulated baseline and PMA as 100%", "value": 24, "unit": "%"}, {"measurement": "induction of HIV-1 gene expression, % of the normalized value", "setting": "[1]; normalized between unstimulated baseline and PMA positive control as 100%, concentration not given", "value": 24, "unit": "%"}, {"measurement": "IC50", "setting": "[2]; Human immunodeficiency virus 1, J-Lat 10.6, 48 h, read-out: IC50 for reactivation of HIV-1 gene expression", "value": "~4.5", "unit": "µM"}, {"measurement": "percent of the cells treated with reactivated HIV-1 gene expression", "setting": "[2]; J.Lat10.6 model, alone at 10 μM and in combination, 48 hrs post treatment", "value": 2.4, "unit": "%"}, {"measurement": "dose dependent toxicity", "setting": "J.Lat10.6 T-cell line", "value": "no such toxicity"}]}
